Assay results taken from patent publication US4175081A, “5-Substituted thiadiazole ureas” (priority 1977, dated 1979).

Assays:
Bean (BN) [1] = assay: Post-emergence herbicide test; type: in vivo, Phaseolus vulgaris var. Black Valentine; conditions: Phaseolus vulgaris, post-emergence, 336 h, two weeks after treatment; for pest or weed control at 4483.4 g/ha: 4 lb/acre
Procedure, shortened: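 Snapbean (Phaseolus vulgaris var. Black Valentine) was tested post-emergence. Four seeds were sown in 3' plastic pots of potting soil at a depth equal to the seed diameter, then sub-irrigated in greenhouse trays. Planting dates were staggered so plants were sprayed once primary leaves had expanded, with the growing point at the primary leaf nodes.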

Turnip (TP) [2] = assay: Pre-emergence herbicide test; type: in vivo, Brassica sp.; conditions: Brassica rapa, pre-emergence, 336 h, two weeks after treatment; for pest or weed control at 4483.4 g/ha: 4 lb/acre
Procedure, shortened: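 Turnip (Brassica sp.) seeds were surface sown in 3' plastic pots of potting soil, covered with a thin layer of screened soil, and sub-irrigated in greenhouse trays. Pots were seeded one day ahead of treatment, sprayed pre-emergence under a hood with a fixed nozzle and moving belt, then kept in the greenhouse.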

Bean (BN) [3] = assay: Pre-emergence herbicide test; type: in vivo, Phaseolus vulgaris var. Black Valentine; conditions: Phaseolus vulgaris, 336 h, two weeks after treatment; for pest or weed control at 4483.4 g/ha: 4 lb/acre
Procedure, shortened: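 Black Valentine bean was seeded in potting soil one day before spraying. Compound was applied pre-emergence at 8 lbs/acre (also 4 lbs/acre) in 38 gallons per acre. Plants were sub-irrigated and injury or control was rated visually after two weeks.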

Johnson grass (JG) [4] = assay: Pre-emergence herbicide test; type: in vivo, Sorgum helepense; conditions: Sorghum halepense, 336 h, two weeks after treatment; for pest or weed control at 4483.4 g/ha: 4 lb/acre
Procedure, shortened: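 Pots seeded one day before spraying; compound applied pre-emergence at 8 lbs/acre (or 4 lbs/acre) in 38 gallons/acre spray volume. Sub-irrigated in greenhouse; injury/control rated visually two weeks after treatment.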

Amaranth pigweed (PW) [5] = assay: Post-emergence herbicide test; type: in vivo, Amaranthus retroflexus; conditions: 336 h, two weeks after treatment; for pest or weed control at 4483.4 g/ha: 4 lb/acre
Procedure, shortened: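 Pot-grown pigweed was sprayed post-emergence at the 1–2 true-leaf stage with compound at rates equivalent to 8 lbs per acre (formulations also prepared for 4 lbs/acre) in 38 gallons per acre, using a hood with fixed nozzle. Plants were sub-irrigated in the greenhouse, and injury or control was rated visually two weeks after treatment.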

Cotton (CT) [6] = assay: Pre-emergence herbicide test; type: in vivo, Gossypium hirsutum var. DPL smooth leaf; conditions: Gossypium hirsutum, 336 h, two weeks after treatment; for pest or weed control at 4483.4 g/ha: 4 lb/acre
Procedure, shortened: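 Crop and weed species seeded one day before treatment, then sprayed pre-emergence at 8 lbs actual compound per acre (also 4 lbs/acre formulations) in 38 gallons per acre. Pots kept in greenhouse with sub-irrigation only; injury or control visually rated two weeks after treatment.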

Johnson grass (JG) [7] = assay: Post-emergence herbicide test; type: in vivo, Sorgum helepense; conditions: Sorghum halepense, 336 h, two weeks after treatment; for pest or weed control at 4483.4 g/ha: 4 lb/acre
Procedure, shortened: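 Greenhouse pot-grown seedlings sprayed post-emergence at 8 lbs compound per acre (some at 4 lbs/acre) in 38 gallons per acre spray volume. Sub-irrigated thereafter. Injury/control rated visually two weeks after treatment.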

[8] = test system: Yellow foxtail grass (YF); assay: Pre-emergence herbicide test; type: in vivo, Setaria glauca; conditions: Setaria, 336 h, two weeks after treatment; for pest or weed control at 4483.4 g/ha: 4 lb/acre
Procedure, shortened: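 Seeds surface-sown in potting soil one day before spraying; compounds applied pre-emergence at 8 or 4 lbs/acre in 38 gallons/acre spray. Pots held in greenhouse with sub-irrigation only. Injury or control rated visually two weeks after treatment.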

Amaranth pigweed (PW) [9] = assay: Pre-emergence herbicide test; type: in vivo, Amaranthus retroflexus; conditions: 336 h, two weeks after treatment; for pest or weed control at 4483.4 g/ha: 4 lb/acre
Procedure, shortened: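 Pigweed was surface-seeded in potted soil one day before spraying at 8 lbs compound per acre, or 4 lbs/acre, in 38 gallons per acre. Pots were kept in the greenhouse with sub-irrigation only; injury or control was rated visually two weeks after treatment.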

Turnip (TP) [10] = assay: Post-emergence herbicide test; type: in vivo, Brassica sp.; conditions: Brassica rapa, post-emergence, 336 h, two weeks after treatment; for pest or weed control at 4483.4 g/ha: 4 lb/acre
Procedure, shortened: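 A greenhouse post-emergence herbicide test on turnip. Seeds were sown on the surface of potting soil in 3' plastic pots, lightly covered with screened soil and watered from below. Planting was timed so seedlings had 1 or 2 true leaves above the cotyledons at spraying, done in a hood with a fixed nozzle. Control or injury was scored by eye after two weeks.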

Corn (CN) [11] = assay: Pre-emergence herbicide test; type: in vivo; conditions: Zea mays, 336 h, two weeks after treatment; for pest or weed control at 4483.4 g/ha: 4 lb/acre
Procedure, shortened: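 Four corn seeds per pot, sown at seed-diameter depth one day before spraying, got soil surface treatment at 8 lbs/acre (4 lbs/acre formulations also prepared) in 38 gallons/acre. Pots were greenhouse-held with sub-irrigation only. Injury or control was scored visually two weeks after treatment.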

Corn (CN) [12] = assay: Post-emergence herbicide test; type: in vivo; conditions: Zea mays, 336 h, two weeks after treatment; for pest or weed control at 4483.4 g/ha: 4 lb/acre
Procedure, shortened: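 Greenhouse seedlings grown in potting soil and sprayed post-emergence at 8 lbs compound/acre (formulations also made for 4 lbs/acre) in 38 gallons/acre spray volume. Watering by sub-irrigation only. Injury or control rated visually two weeks after treatment.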

Cotton (CT) [13] = assay: Post-emergence herbicide test; type: in vivo, Gossypium hirsutum var. DPL smooth leaf; conditions: Gossypium hirsutum, post-emergence, 336 h, two weeks after treatment; for pest or weed control at 4483.4 g/ha: 4 lb/acre
Procedure, shortened: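 Cotton (Gossypium hirsutum var. DPL smooth leaf) was grown in 3' plastic pots of potting soil, four seeds per pot, planted at a depth equal to the seed diameter and watered by sub-irrigation. At the stage of expanded cotyledons with the first true leaf 1' long, plants were sprayed post-emergence in a hood with a fixed nozzle over a moving belt. Percent control was rated visually two weeks later.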

[14] = test system: Yellow foxtail grass (YF); assay: Post-emergence herbicide test; type: in vivo, Setaria glauca; conditions: Setaria, 336 h, two weeks after treatment; for pest or weed control at 4483.4 g/ha: 4 lb/acre
Procedure, shortened: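 Potted seedlings grown in greenhouse, planting staggered to reach the target stage together, then sprayed post-emergence at 8 lbs actual compound/acre in 38 gallons/acre (4 lbs/acre formulations also prepared). Sub-irrigated afterwards. Injury or control rated visually two weeks after treatment.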

Barnyard grass (BG) [15] = assay: Pre-emergence herbicide test; type: in vivo; conditions: Echinochloa crus-galli, 336 h, two weeks after treatment; for pest or weed control at 4483.4 g/ha: 4 lb/acre
Procedure, shortened: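 Barnyard grass surface-seeded in potting soil and sprayed pre-emergence one day after seeding, at 8 or 4 lb compound/acre in 38 gal/acre spray volume. Pots kept in greenhouse with sub-irrigation only; injury or control rated visually two weeks after treatment.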

Barnyard grass (BG) [16] = assay: Post-emergence herbicide test; type: in vivo; conditions: Echinochloa crus-galli, 336 h, two weeks after treatment; for pest or weed control at 4483.4 g/ha: 4 lb/acre
Procedure, shortened: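 Greenhouse pot-grown barnyard grass seedlings sprayed post-emergence at 8 lbs active compound per acre (some at 4 lbs/acre) in 38 gallons per acre, then sub-irrigated. Injury or control rated visually two weeks after treatment.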

Crabgrass (CG) [17] = assay: Post-emergence herbicide test; type: in vivo, Digitaria sanquinalis; conditions: Digitaria sanguinalis, post-emergence, 336 h, two weeks after treatment; for pest or weed control at 4483.4 g/ha: 4 lb/acre
Procedure, shortened: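 Crabgrass (Digitaria sanquinalis) was surface seeded individually in 3' plastic pots of potting soil, covered with screened soil, and watered by sub-irrigation in greenhouse trays. Planting was staggered so seedlings reached the target stage together. Post-emergence sprays were applied in a hood with a removable belt and fixed nozzle, and control was visually rated two weeks after treatment.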

Crabgrass (CG) [18] = assay: Pre-emergence herbicide test; type: in vivo, Digitaria sanquinalis; conditions: Digitaria sanguinalis, pre-emergence, 336 h, two weeks after treatment; for pest or weed control at 4483.4 g/ha: 4 lb/acre
Procedure, shortened: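 Crabgrass (Digitaria sanquinalis) was surface seeded in 3' plastic pots of potting soil, covered with screened soil, and watered by sub-irrigation in greenhouse trays. Pots were seeded one day before spraying in a hood with a moving belt and fixed nozzle. Plants stayed in the greenhouse on sub-irrigation, and pre-emergence control was rated visually two weeks after treatment.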

CNC(=O)N(C)c1nnc(C(C)(C)C)s1 [Example 42]
pest or weed control at 2241.7 g/ha (Bean (BN) [1]; 2 lb/acre): 80%
pest or weed control at 4483.4 g/ha (Bean (BN) [1]): 100%
pest or weed control at 8966.8 g/ha (Bean (BN) [1]; 8 lb/acre): 100%
pest or weed control at 2241.7 g/ha (Turnip (TP) [2]; 2 lb/acre): 100%
pest or weed control at 4483.4 g/ha (Turnip (TP) [2]): 90%
pest or weed control at 8966.8 g/ha (Turnip (TP) [2]; 8 lb/acre): 100%
pest or weed control at 2241.7 g/ha (Bean (BN) [3]; 2 lb/acre): 40%
pest or weed control at 4483.4 g/ha (Bean (BN) [3]): 90%
pest or weed control at 8966.8 g/ha (Bean (BN) [3]; 8 lb/acre): 100%
pest or weed control at 2241.7 g/ha (Johnson grass (JG) [4]; 2 lb/acre): 70%
pest or weed control at 4483.4 g/ha (Johnson grass (JG) [4]): 90%
pest or weed control at 8966.8 g/ha (Johnson grass (JG) [4]; 8 lb/acre): 100%
pest or weed control at 2241.7 g/ha (Amaranth pigweed (PW) [5]; 2 lb/acre): 100%
pest or weed control at 4483.4 g/ha (Amaranth pigweed (PW) [5]): 100%
pest or weed control at 8966.8 g/ha (Amaranth pigweed (PW) [5]; 8 lb/acre): 100%
pest or weed control at 2241.7 g/ha (Cotton (CT) [6]; 2 lb/acre): 30%
pest or weed control at 4483.4 g/ha (Cotton (CT) [6]): 70%
pest or weed control at 8966.8 g/ha (Cotton (CT) [6]; 8 lb/acre): 90%
pest or weed control (Johnson grass (JG) [7]; 2 lb/acre): 70%
pest or weed control at 4483.4 g/ha (Johnson grass (JG) [7]): 90%
pest or weed control at 8966.8 g/ha (Johnson grass (JG) [7]; 8 lb/acre): 100%
pest or weed control at 2241.7 g/ha ([8]; 2 lb/acre): 90%
pest or weed control at 4483.4 g/ha [8]: 80%
pest or weed control at 8966.8 g/ha ([8]; 8 lb/acre): 90%
pest or weed control at 2241.7 g/ha (Amaranth pigweed (PW) [9]; 2 lb/acre): 100%
pest or weed control at 4483.4 g/ha (Amaranth pigweed (PW) [9]): 100%
pest or weed control at 8966.8 g/ha (Amaranth pigweed (PW) [9]; 8 lb/acre): 100%
pest or weed control at 2241.7 g/ha (Turnip (TP) [10]; 2 lb/acre): 100%
pest or weed control at 4483.4 g/ha (Turnip (TP) [10]): 100%
pest or weed control at 8966.8 g/ha (Turnip (TP) [10]; 8 lb/acre): 100%
pest or weed control at 2241.7 g/ha (Corn (CN) [11]; 2 lb/acre): 0%
pest or weed control at 4483.4 g/ha (Corn (CN) [11]): 60%
pest or weed control at 8966.8 g/ha (Corn (CN) [11]; 8 lb/acre): 90%
pest or weed control (Corn (CN) [12]; 2 lb/acre): 70%
pest or weed control at 4483.4 g/ha (Corn (CN) [12]): 70%
pest or weed control at 8966.8 g/ha (Corn (CN) [12]; 8 lb/acre): 100%
pest or weed control at 2241.7 g/ha (Cotton (CT) [13]; 2 lb/acre): 100%
pest or weed control at 4483.4 g/ha (Cotton (CT) [13]): 100%
pest or weed control at 8966.8 g/ha (Cotton (CT) [13]; 8 lb/acre): 100%
pest or weed control ([14]; 2 lb/acre): 90%
pest or weed control at 4483.4 g/ha [14]: 90%
pest or weed control at 8966.8 g/ha ([14]; 8 lb/acre): 100%
pest or weed control at 2241.7 g/ha (Barnyard grass (BG) [15]; 2 lb/acre): 80%
pest or weed control at 4483.4 g/ha (Barnyard grass (BG) [15]): 90%
pest or weed control at 8966.8 g/ha (Barnyard grass (BG) [15]; 8 lb/acre): 90%
pest or weed control at 2241.7 g/ha (Barnyard grass (BG) [16]; 2 lb/acre): 90%
pest or weed control at 4483.4 g/ha (Barnyard grass (BG) [16]): 90%
pest or weed control at 8966.8 g/ha (Barnyard grass (BG) [16]; 8 lb/acre): 100%
pest or weed control (Crabgrass (CG) [17]; 2 lb/acre): 40%
pest or weed control at 4483.4 g/ha (Crabgrass (CG) [17]): 70%
pest or weed control at 8966.8 g/ha (Crabgrass (CG) [17]; 8 lb/acre): 100%
pest or weed control (Crabgrass (CG) [18]; 2 lb/acre): 90%
pest or weed control at 4483.4 g/ha (Crabgrass (CG) [18]): 90%
pest or weed control at 8966.8 g/ha (Crabgrass (CG) [18]; 8 lb/acre): 90%

CN(C)C(=O)N(C)c1nnc(C(C)(C)C)s1 [Example 43]
pest or weed control at 4483.4 g/ha (Bean (BN) [1]): 100%
pest or weed control at 4483.4 g/ha (Turnip (TP) [2]): 100%
pest or weed control at 4483.4 g/ha (Bean (BN) [3]): 90%
pest or weed control at 4483.4 g/ha (Johnson grass (JG) [4]): 90%
pest or weed control at 4483.4 g/ha (Amaranth pigweed (PW) [5]): 100%
pest or weed control at 4483.4 g/ha (Cotton (CT) [6]): 90%
pest or weed control at 4483.4 g/ha (Johnson grass (JG) [7]): 100%
pest or weed control at 4483.4 g/ha [8]: 100%
pest or weed control at 4483.4 g/ha (Amaranth pigweed (PW) [9]): 100%
pest or weed control at 4483.4 g/ha (Turnip (TP) [10]): 100%
pest or weed control at 4483.4 g/ha (Corn (CN) [11]): 90%
pest or weed control at 4483.4 g/ha (Corn (CN) [12]): 100%
pest or weed control at 4483.4 g/ha (Cotton (CT) [13]): 100%
pest or weed control at 4483.4 g/ha [14]: 100%
pest or weed control at 4483.4 g/ha (Barnyard grass (BG) [15]): 100%
pest or weed control at 4483.4 g/ha (Barnyard grass (BG) [16]): 100%
pest or weed control at 4483.4 g/ha (Crabgrass (CG) [17]): 100%
pest or weed control at 4483.4 g/ha (Crabgrass (CG) [18]): 100%
